{
  "source": "patent US12077503B2",
  "about": "“Substituted cyclic amides and their use as herbicides” (FMC CORPORATION, priority 2015, dated 2024)",
  "type_in_all_cases": "in vivo",
  "key": {"[1]": {"system": "barnyardgrass (Echinochloa crus-galli)", "experiment": "Test G Pre-Emergence Protocol", "details": "Echinochloa crus-galli, pre-emergence, 312 h, evaluated after 13 days", "summary_of_the_method": "(§1)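 Visual injury (0–100) at day 13 after a single pre-emergence spray. Rates: 15.625, 62.5, 250 g/ha in acetone–water 50:50 with 0.5% Tween 20. Growth conditions: 24/16° C, 14 h light, 65% humidity.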"}, "corn (Zea mays) [2]": {"system": "corn (Zea mays)", "experiment": "Test G Pre-Emergence Protocol", "details": "Zea mays, pre-emergence, 312 h, evaluated after 13 days", "summary_of_the_method": "as §1"}, "[3]": {"system": "giant foxtail (Setaria faberi)", "experiment": "Test G Pre-Emergence Protocol", "details": "Setaria faberi, pre-emergence, 312 h, evaluated after 13 days", "summary_of_the_method": "as §1"}, "[4]": {"system": "ivy-leaved morning glory (Ipomoea hederacea)", "experiment": "Test G Pre-Emergence Protocol", "details": "Ipomoea, pre-emergence, 312 h, evaluated after 13 days", "summary_of_the_method": "as §1"}, "[5]": {"system": "redroot pigweed (Amaranthus retroflexus)", "experiment": "Test G Pre-Emergence Protocol", "details": "Amaranthus retroflexus, pre-emergence, 312 h, evaluated after 13 days", "summary_of_the_method": "as §1"}, "[6]": {"system": "velvetleaf (Abutilon theophrasti)", "experiment": "Test G Pre-Emergence Protocol", "details": "Abutilon theophrasti, pre-emergence, 312 h, evaluated after 13 days", "summary_of_the_method": "as §1"}, "[7]": {"system": "barnyardgrass (Echinochloa crus-galli)", "experiment": "Test G Post-Emergence Protocol", "details": "Echinochloa crus-galli, post-emergence, 312 h", "summary_of_the_method": "(§2)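 Pot-grown seedlings, 8 days old, raised in a glasshouse at 24/16 °C day/night with 14 h light and 65% humidity, were sprayed post-emergence with test compound in acetone/water (50:50) plus 0.5% Tween 20 at 15.625, 62.5 or 250 g/ha. Damage was scored visually 13 days later on a 0–100 scale (100 = total damage).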"}, "corn (Zea mays) [8]": {"system": "corn (Zea mays)", "experiment": "Test G Post-Emergence Protocol", "details": "Zea mays, post-emergence, 312 h", "summary_of_the_method": "as §2"}, "[9]": {"system": "giant foxtail (Setaria faberi)", "experiment": "Test G Post-Emergence Protocol", "details": "Setaria faberi, post-emergence, 312 h", "summary_of_the_method": "as §2"}, "[10]": {"system": "ivy-leaved morning glory (Ipomoea hederacea)", "experiment": "Test G Post-Emergence Protocol", "details": "Ipomoea, post-emergence, 312 h", "summary_of_the_method": "as §2"}, "[11]": {"system": "redroot pigweed (Amaranthus retroflexus)", "experiment": "Test G Post-Emergence Protocol", "details": "Amaranthus retroflexus, post-emergence, 312 h", "summary_of_the_method": "as §2"}, "[12]": {"system": "velvetleaf (Abutilon theophrasti)", "experiment": "Test G Post-Emergence Protocol", "details": "Abutilon theophrasti, post-emergence, 312 h", "summary_of_the_method": "as §2"}},
  "data": [
    {"compound": "COc1cncc(NC(=O)[C@@H]2C(=O)N(C)C[C@H]2c2ccc(C(F)(F)F)cc2)n1", "note": "(racemic) [Compound 1565]", "values": [
      {"measurement": "pest or weed control at 15.625 g/ha", "setting": "[1]; 15.625 g ai/ha, read-out: Barnyard grass damage rating (100=total damage to plant; 0=no damage to plant)", "result": 0, "unit": "%"},
      {"measurement": "pest or weed control at 62.5 g/ha", "setting": "[1]; 62.5 g ai/ha, 100=total damage to plant, 0=no damage to plant, read-out: plant damage rating, Barnyardgrass", "result": 0, "unit": "%"},
      {"measurement": "pest or weed control at 250 g/ha", "setting": "[1]; 250 g ai/ha, read-out: Barnyardgrass damage rating (100=total damage to plant; 0=no damage to plant)", "result": 10, "unit": "%"},
      {"measurement": "plant injury at 15.625 g/ha", "setting": "corn (Zea mays) [2]; 15.625 g ai/ha, read-out: Corn damage rating (100=total damage to plant; 0=no damage to plant)", "result": 0, "unit": "%"},
      {"measurement": "plant injury at 62.5 g/ha", "setting": "corn (Zea mays) [2]; 62.5 g ai/ha, 100=total damage to plant, 0=no damage to plant, read-out: plant damage rating, Corn", "result": 0, "unit": "%"},
      {"measurement": "plant injury at 250 g/ha", "setting": "corn (Zea mays) [2]; 250 g ai/ha, read-out: Corn damage rating (100=total damage to plant; 0=no damage to plant)", "result": 0, "unit": "%"},
      {"measurement": "pest or weed control at 15.625 g/ha", "setting": "[3]; 15.625 g ai/ha, read-out: Foxtail, Giant damage rating (100=total damage to plant; 0=no damage to plant)", "result": 0, "unit": "%"},
      {"measurement": "pest or weed control at 62.5 g/ha", "setting": "[3]; 62.5 g ai/ha, 100=total damage to plant, 0=no damage to plant, read-out: plant damage rating, Foxtail, Giant", "result": 0, "unit": "%"},
      {"measurement": "pest or weed control at 250 g/ha", "setting": "[3]; 250 g ai/ha, read-out: Foxtail, Giant damage rating (100=total damage to plant; 0=no damage to plant)", "result": 60, "unit": "%"},
      {"measurement": "pest or weed control at 15.625 g/ha", "setting": "[4]; 15.625 g ai/ha, read-out: Morning-glory, Ivy-leaved damage rating (100=total damage to plant; 0=no damage to plant)", "result": 0, "unit": "%"},
      {"measurement": "pest or weed control at 62.5 g/ha", "setting": "[4]; 62.5 g ai/ha, 100=total damage to plant, 0=no damage to plant, read-out: plant damage rating, Morningglory, Ivy-leaved", "result": 0, "unit": "%"},
      {"measurement": "pest or weed control at 250 g/ha", "setting": "[4]; 250 g ai/ha, read-out: Morningglory, Ivy-leaved damage rating (100=total damage to plant; 0=no damage to plant)", "result": 0, "unit": "%"},
      {"measurement": "pest or weed control at 15.625 g/ha", "setting": "[5]; 15.625 g ai/ha, read-out: Pigweed, Redroot damage rating (100=total damage to plant; 0=no damage to plant)", "result": 0, "unit": "%"},
      {"measurement": "pest or weed control at 62.5 g/ha", "setting": "[5]; 62.5 g ai/ha, 100=total damage to plant, 0=no damage to plant, read-out: plant damage rating, Pigweed, Redroot", "result": 0, "unit": "%"},
      {"measurement": "pest or weed control at 250 g/ha", "setting": "[5]; 250 g ai/ha, read-out: Pigweed, Redroot damage rating (100=total damage to plant; 0=no damage to plant)", "result": 10, "unit": "%"},
      {"measurement": "pest or weed control at 15.625 g/ha", "setting": "[6]; 15.625 g ai/ha, read-out: Velvetleaf damage rating (100=total damage to plant; 0=no damage to plant)", "result": 0, "unit": "%"},
      {"measurement": "pest or weed control at 62.5 g/ha", "setting": "[6]; 62.5 g ai/ha, 100=total damage to plant, 0=no damage to plant, read-out: plant damage rating, Velvetleaf", "result": 0, "unit": "%"},
      {"measurement": "pest or weed control at 250 g/ha", "setting": "[6]; 250 g ai/ha, read-out: Velvetleaf damage rating (100=total damage to plant; 0=no damage to plant)", "result": 0, "unit": "%"},
      {"measurement": "pest or weed control at 15.625 g/ha", "setting": "[7]; 15.625 g ai/ha, evaluated after 13 days (100=total damage to plant; 0=no damage to plant), read-out: Barnyardgrass damage rating", "result": 0, "unit": "%"},
      {"measurement": "pest or weed control at 62.5 g/ha", "setting": "[7]; 62.5 g ai/ha, evaluated after 13 days, read-out: Barnyardgrass damage rating (100=total damage to plant; 0=no damage to plant)", "result": 0, "unit": "%"},
      {"measurement": "pest or weed control at 250 g/ha", "setting": "[7]; 250 g ai/ha, evaluated after 13 days, read-out: damage to plant, Barnyardgrass (100=total damage to plant; 0=no damage to plant)", "result": 10, "unit": "%"},
      {"measurement": "plant injury at 15.625 g/ha", "setting": "corn (Zea mays) [8]; 15.625 g ai/ha, evaluated after 13 days (100=total damage to plant; 0=no damage to plant), read-out: Corn damage rating", "result": 0, "unit": "%"},
      {"measurement": "plant injury at 62.5 g/ha", "setting": "corn (Zea mays) [8]; 62.5 g ai/ha, evaluated after 13 days, read-out: Corn damage rating (100=total damage to plant; 0=no damage to plant)", "result": 0, "unit": "%"},
      {"measurement": "plant injury at 250 g/ha", "setting": "corn (Zea mays) [8]; 250 g ai/ha, evaluated after 13 days, read-out: damage to plant, Corn (100=total damage to plant; 0=no damage to plant)", "result": 10, "unit": "%"},
      {"measurement": "pest or weed control at 15.625 g/ha", "setting": "[9]; 15.625 g ai/ha, evaluated after 13 days (100=total damage to plant; 0=no damage to plant), read-out: Foxtail, Giant damage rating", "result": 0, "unit": "%"},
      {"measurement": "pest or weed control at 62.5 g/ha", "setting": "[9]; 62.5 g ai/ha, evaluated after 13 days, read-out: Foxtail, Giant damage rating (100=total damage to plant; 0=no damage to plant)", "result": 0, "unit": "%"},
      {"measurement": "pest or weed control at 250 g/ha", "setting": "[9]; 250 g ai/ha, evaluated after 13 days, read-out: damage to plant, Foxtail, Giant (100=total damage to plant; 0=no damage to plant)", "result": 50, "unit": "%"},
      {"measurement": "pest or weed control at 15.625 g/ha", "setting": "[10]; 15.625 g ai/ha, evaluated after 13 days (100=total damage to plant; 0=no damage to plant), read-out: Morningglory, Ivy-leaved damage rating", "result": 0, "unit": "%"},
      {"measurement": "pest or weed control at 62.5 g/ha", "setting": "[10]; 62.5 g ai/ha, evaluated after 13 days, read-out: Morningglory, Ivy-leaved damage rating (100=total damage to plant; 0=no damage to plant)", "result": 0, "unit": "%"},
      {"measurement": "pest or weed control at 250 g/ha", "setting": "[10]; 250 g ai/ha, evaluated after 13 days, read-out: damage to plant, Morningglory, Ivy-leaved (100=total damage to plant; 0=no damage to plant)", "result": 0, "unit": "%"},
      {"measurement": "pest or weed control at 15.625 g/ha", "setting": "[11]; 15.625 g ai/ha, evaluated after 13 days (100=total damage to plant; 0=no damage to plant), read-out: Pigweed, Redroot damage rating", "result": 0, "unit": "%"},
      {"measurement": "pest or weed control at 62.5 g/ha", "setting": "[11]; 62.5 g ai/ha, evaluated after 13 days, read-out: Pigweed, Redroot damage rating (100=total damage to plant; 0=no damage to plant)", "result": 0, "unit": "%"},
      {"measurement": "pest or weed control at 250 g/ha", "setting": "[11]; 250 g ai/ha, evaluated after 13 days, read-out: damage to plant, Pigweed, Redroot (100=total damage to plant; 0=no damage to plant)", "result": 0, "unit": "%"},
      {"measurement": "pest or weed control at 15.625 g/ha", "setting": "[12]; 15.625 g ai/ha, evaluated after 13 days (100=total damage to plant; 0=no damage to plant), read-out: Velvetleaf damage rating", "result": 0, "unit": "%"},
      {"measurement": "pest or weed control at 62.5 g/ha", "setting": "[12]; 62.5 g ai/ha, evaluated after 13 days, read-out: Velvetleaf damage rating (100=total damage to plant; 0=no damage to plant)", "result": 0, "unit": "%"},
      {"measurement": "pest or weed control at 250 g/ha", "setting": "[12]; 250 g ai/ha, evaluated after 13 days, read-out: damage to plant, Velvetleaf (100=total damage to plant; 0=no damage to plant)", "result": 30, "unit": "%"}
    ]}
  ]
}
